Results taken from ChEMBL document CHEMBL5212743, “Selectivity Literature for EUbOPEN Chemogenomics Library wave 3” (2023).

Key:
[1] = molecular target: T1, Homeodomain-interacting protein kinase 4 (Homo sapiens) (UniProt Q8NE63); details: at 1 µM
T1 sequence (whole entry): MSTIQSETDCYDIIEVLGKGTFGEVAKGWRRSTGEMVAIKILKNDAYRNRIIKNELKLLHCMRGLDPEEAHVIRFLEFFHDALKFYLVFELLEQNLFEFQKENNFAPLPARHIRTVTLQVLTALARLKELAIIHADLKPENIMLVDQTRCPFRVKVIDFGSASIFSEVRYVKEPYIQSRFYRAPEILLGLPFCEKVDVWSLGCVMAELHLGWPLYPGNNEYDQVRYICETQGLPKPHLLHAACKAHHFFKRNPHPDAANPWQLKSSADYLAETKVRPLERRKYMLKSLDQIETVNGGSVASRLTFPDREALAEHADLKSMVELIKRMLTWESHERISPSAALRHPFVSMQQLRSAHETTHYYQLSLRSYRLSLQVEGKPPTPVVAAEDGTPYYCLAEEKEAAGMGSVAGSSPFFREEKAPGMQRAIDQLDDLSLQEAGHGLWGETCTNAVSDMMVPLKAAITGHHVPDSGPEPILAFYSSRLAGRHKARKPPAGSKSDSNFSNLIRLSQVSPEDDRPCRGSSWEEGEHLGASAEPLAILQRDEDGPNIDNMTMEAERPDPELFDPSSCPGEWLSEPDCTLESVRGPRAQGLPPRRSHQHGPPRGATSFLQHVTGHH

[2] = molecular target: Tyrosine-protein kinase FRK (Homo sapiens, UniProt P42685); details: at 1 µM
[3] = molecular target: T2, Dual specificity mitogen-activated protein kinase kinase 5 (Homo sapiens) (UniProt Q13163); details: at 1 µM
T2 sequence (whole entry): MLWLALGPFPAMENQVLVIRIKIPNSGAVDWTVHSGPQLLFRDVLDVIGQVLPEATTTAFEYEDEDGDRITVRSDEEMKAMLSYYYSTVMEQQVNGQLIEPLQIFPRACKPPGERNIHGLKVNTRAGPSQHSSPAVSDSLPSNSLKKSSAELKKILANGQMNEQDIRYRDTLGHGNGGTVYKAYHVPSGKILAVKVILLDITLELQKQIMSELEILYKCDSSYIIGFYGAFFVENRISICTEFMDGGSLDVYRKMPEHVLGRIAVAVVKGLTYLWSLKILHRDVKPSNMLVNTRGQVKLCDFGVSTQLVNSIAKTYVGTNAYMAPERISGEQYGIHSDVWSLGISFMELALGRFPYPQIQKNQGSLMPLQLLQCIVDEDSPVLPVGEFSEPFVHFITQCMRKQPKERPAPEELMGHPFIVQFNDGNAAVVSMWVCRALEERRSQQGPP

[4] = molecular target: Ribosomal protein S6 kinase beta-1 (Homo sapiens) (UniProt P23443); details: at 10 µM
[5] = molecular target: Calcium/calmodulin-dependent protein kinase kinase 1 (Homo sapiens) (UniProt Q8N5S9); experiment: Selectivity interaction (KinomeScan (DiscoverX)) EUB0000169b CAMKK1; details: at 1 µM
[6] = molecular target: Dual specificity mitogen-activated protein kinase kinase 1 (Homo sapiens, UniProt Q02750); experiment: Selectivity interaction (Kinase panel (University of Dundee)) EUB0000169b MAP2K1; details: at 10 µM
[7] = molecular target: Mitogen-activated protein kinase 8 (Homo sapiens, UniProt P45983); details: at 10 µM
[8] = molecular target: Mitogen-activated protein kinase 1 (Homo sapiens, UniProt P28482); experiment: Selectivity interaction (Kinase panel (University of Dundee)) EUB0000169b MAPK1; details: at 10 µM
[9] = molecular target: Serine/threonine-protein kinase WNK4 (Homo sapiens) (UniProt Q96J92); experiment: Selectivity interaction (KinomeScan (DiscoverX)) EUB0000702a WNK4; details: at 1 µM
[10] = molecular target: High affinity nerve growth factor receptor (Homo sapiens, UniProt P04629); experiment: Selectivity interaction (KinomeScan (DiscoverX)) EUB0000702a NTRK1; details: at 1 µM
[11] = molecular target: Tyrosine-protein kinase JAK2 (Homo sapiens, UniProt O60674); experiment: Selectivity interaction (KinomeScan (DiscoverX)) EUB0000702a JAK2; details: at 1 µM
[12] = molecular target: Aurora kinase B (Homo sapiens, UniProt Q96GD4); experiment: Selectivity interaction (KinomeScan (DiscoverX)) EUB0000178b AURKB; details: at 1 µM
[13] = molecular target: Non-receptor tyrosine-protein kinase TYK2 (Homo sapiens, UniProt P29597); experiment: Selectivity interaction (KinomeScan (DiscoverX, competition-binding assay)) EUB0000178b TYK2
[14] = molecular target: Death-associated protein kinase 1 (Homo sapiens) (UniProt P53355); experiment: Selectivity interaction (KinomeScan (DiscoverX)) EUB0000698a DAPK1; details: at 10 µM
[15] = molecular target: Mitogen-activated protein kinase kinase kinase 1 (Homo sapiens) (UniProt Q13233); experiment: Selectivity interaction (KinomeScan (DiscoverX)) EUB0000698a MAP3K1; details: at 10 µM
[16] = molecular target: Rho-associated protein kinase 1 (Homo sapiens) (UniProt Q13464); experiment: Selectivity interaction (KinomeScan (DiscoverX)) EUB0000698a ROCK1; details: at 10 µM
[17] = molecular target: Serine/threonine-protein kinase 10 (Homo sapiens) (UniProt O94804); experiment: Selectivity interaction (KinomeScan (DiscoverX)) EUB0000698a STK10; details: at 10 µM
[18] = molecular target: T3, Phosphatidylinositol 5-phosphate 4-kinase type-2 beta (Homo sapiens) (UniProt P78356); experiment: Selectivity interaction (KinomeScan (DiscoverX)) EUB0000698a PIP4K2B; details: at 10 µM
T3 sequence (whole entry): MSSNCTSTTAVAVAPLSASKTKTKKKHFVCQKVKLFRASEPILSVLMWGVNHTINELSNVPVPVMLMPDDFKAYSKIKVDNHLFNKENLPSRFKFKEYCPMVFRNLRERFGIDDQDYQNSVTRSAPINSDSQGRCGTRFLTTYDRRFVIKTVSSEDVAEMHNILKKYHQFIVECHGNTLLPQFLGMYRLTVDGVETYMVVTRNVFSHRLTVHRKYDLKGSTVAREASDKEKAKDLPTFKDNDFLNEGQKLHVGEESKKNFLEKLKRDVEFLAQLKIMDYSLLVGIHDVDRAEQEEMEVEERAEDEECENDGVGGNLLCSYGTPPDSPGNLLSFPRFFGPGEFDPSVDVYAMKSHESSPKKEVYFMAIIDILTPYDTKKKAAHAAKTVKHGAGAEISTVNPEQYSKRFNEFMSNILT

Sequence of Serine/threonine-protein kinase 10 (Homo sapiens) (O94804 whole entry, looked up): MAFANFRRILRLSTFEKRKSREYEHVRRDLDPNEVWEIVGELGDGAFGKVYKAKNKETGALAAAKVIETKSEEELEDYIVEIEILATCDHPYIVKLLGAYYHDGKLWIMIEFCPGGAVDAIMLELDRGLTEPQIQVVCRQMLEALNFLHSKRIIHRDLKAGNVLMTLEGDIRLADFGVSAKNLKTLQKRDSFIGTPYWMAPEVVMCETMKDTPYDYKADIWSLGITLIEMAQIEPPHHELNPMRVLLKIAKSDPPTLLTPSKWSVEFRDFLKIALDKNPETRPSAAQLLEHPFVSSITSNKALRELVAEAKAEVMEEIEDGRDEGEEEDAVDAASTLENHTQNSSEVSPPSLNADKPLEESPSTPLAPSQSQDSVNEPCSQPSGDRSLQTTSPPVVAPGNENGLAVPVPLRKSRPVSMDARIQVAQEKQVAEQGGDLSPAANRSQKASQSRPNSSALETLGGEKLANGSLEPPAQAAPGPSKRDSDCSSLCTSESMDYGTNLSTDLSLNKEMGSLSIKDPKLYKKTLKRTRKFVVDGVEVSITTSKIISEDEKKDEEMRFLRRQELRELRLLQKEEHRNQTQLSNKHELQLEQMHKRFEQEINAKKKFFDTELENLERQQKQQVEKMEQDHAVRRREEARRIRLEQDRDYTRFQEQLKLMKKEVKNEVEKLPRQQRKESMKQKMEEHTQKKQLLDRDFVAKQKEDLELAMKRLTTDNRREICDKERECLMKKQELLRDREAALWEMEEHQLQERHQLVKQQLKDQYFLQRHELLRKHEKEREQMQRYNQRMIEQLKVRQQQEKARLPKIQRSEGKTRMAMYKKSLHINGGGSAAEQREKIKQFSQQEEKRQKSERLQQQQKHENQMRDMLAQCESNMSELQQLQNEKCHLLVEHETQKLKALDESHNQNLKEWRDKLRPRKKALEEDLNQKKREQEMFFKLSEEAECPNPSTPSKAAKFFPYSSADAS
Sequence of Mitogen-activated protein kinase 1 (P28482 whole entry): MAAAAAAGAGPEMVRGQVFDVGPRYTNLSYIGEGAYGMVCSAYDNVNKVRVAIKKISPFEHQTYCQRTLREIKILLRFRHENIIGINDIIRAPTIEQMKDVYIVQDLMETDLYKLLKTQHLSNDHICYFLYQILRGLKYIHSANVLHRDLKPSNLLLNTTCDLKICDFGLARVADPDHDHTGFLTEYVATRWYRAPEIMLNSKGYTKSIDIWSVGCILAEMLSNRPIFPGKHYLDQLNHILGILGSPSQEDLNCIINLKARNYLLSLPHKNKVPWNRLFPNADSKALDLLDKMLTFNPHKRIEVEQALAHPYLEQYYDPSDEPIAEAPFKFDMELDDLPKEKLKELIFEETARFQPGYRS
Sequence of High affinity nerve growth factor receptor (P04629 33-796 limits assumed): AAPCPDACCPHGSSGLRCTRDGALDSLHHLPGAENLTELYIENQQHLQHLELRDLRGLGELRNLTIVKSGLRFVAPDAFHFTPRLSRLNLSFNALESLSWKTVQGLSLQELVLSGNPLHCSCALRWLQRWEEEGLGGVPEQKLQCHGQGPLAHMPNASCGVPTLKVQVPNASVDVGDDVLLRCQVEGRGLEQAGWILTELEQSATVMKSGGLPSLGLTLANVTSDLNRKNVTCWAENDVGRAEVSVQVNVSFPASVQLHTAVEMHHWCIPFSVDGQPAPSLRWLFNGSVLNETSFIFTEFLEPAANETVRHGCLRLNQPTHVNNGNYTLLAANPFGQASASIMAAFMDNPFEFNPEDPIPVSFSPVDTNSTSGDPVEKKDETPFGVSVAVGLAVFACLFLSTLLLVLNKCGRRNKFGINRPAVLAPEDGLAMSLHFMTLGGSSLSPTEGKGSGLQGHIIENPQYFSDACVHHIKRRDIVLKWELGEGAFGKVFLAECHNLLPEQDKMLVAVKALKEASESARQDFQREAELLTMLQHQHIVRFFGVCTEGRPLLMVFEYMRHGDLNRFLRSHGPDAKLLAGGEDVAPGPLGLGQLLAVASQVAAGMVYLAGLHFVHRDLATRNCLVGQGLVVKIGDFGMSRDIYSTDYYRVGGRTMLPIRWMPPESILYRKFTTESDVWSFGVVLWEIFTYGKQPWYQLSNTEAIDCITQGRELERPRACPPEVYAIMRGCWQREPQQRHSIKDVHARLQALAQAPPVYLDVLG
Sequence of Mitogen-activated protein kinase kinase kinase 1 (Homo sapiens) (Q13233 whole entry): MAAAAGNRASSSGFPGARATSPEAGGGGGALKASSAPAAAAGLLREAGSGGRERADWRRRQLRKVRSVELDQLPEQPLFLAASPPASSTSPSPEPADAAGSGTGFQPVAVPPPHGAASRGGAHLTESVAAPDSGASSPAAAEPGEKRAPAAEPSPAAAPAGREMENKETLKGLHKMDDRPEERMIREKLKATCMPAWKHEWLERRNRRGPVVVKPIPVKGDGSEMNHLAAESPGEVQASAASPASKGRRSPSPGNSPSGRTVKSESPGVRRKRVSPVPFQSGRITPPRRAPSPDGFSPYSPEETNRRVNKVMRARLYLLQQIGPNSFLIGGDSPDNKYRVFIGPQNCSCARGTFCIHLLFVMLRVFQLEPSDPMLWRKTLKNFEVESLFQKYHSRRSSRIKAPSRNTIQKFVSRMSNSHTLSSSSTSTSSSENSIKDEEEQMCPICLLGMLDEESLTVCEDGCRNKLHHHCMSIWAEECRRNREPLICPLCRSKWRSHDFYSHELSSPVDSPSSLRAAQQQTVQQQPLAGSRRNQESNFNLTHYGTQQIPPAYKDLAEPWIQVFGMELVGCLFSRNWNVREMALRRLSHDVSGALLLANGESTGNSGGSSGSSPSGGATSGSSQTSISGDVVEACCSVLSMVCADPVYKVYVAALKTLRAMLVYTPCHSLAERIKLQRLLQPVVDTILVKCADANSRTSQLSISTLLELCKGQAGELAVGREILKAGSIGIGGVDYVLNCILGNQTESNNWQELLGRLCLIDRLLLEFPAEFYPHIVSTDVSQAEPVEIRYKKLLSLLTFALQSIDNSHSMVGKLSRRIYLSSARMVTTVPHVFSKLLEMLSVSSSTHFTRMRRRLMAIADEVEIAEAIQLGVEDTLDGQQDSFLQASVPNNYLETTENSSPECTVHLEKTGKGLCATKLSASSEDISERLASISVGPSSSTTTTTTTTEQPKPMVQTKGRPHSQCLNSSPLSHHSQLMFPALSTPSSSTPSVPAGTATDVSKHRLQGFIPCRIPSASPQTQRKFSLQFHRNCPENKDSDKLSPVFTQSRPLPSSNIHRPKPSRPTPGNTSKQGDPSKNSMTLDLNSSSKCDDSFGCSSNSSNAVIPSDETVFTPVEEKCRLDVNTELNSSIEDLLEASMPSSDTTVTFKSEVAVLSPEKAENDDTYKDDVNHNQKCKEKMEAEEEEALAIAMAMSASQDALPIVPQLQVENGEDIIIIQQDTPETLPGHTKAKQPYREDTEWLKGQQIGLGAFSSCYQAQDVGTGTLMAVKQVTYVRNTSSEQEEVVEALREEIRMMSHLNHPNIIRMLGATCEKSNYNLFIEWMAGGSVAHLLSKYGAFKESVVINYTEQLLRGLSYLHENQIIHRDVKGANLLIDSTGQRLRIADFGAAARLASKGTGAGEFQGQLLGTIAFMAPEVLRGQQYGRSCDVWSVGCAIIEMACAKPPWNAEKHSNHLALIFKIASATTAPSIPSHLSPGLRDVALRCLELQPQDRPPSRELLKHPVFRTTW
Sequence of Calcium/calmodulin-dependent protein kinase kinase 1 (Homo sapiens) (Q8N5S9 whole entry, looked up): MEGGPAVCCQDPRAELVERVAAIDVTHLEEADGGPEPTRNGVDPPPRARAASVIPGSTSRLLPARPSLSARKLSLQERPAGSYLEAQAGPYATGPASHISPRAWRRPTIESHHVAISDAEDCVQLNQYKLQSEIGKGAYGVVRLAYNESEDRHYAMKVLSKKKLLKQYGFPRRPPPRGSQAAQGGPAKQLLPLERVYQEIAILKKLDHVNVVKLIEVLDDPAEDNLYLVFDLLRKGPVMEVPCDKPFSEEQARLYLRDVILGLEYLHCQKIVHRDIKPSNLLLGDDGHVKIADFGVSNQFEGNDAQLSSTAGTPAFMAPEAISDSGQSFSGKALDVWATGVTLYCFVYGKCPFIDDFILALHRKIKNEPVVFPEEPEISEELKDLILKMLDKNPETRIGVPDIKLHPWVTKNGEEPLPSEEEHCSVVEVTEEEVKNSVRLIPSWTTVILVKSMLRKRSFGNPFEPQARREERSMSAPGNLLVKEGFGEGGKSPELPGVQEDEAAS
Sequence of Tyrosine-protein kinase FRK (P42685 whole entry): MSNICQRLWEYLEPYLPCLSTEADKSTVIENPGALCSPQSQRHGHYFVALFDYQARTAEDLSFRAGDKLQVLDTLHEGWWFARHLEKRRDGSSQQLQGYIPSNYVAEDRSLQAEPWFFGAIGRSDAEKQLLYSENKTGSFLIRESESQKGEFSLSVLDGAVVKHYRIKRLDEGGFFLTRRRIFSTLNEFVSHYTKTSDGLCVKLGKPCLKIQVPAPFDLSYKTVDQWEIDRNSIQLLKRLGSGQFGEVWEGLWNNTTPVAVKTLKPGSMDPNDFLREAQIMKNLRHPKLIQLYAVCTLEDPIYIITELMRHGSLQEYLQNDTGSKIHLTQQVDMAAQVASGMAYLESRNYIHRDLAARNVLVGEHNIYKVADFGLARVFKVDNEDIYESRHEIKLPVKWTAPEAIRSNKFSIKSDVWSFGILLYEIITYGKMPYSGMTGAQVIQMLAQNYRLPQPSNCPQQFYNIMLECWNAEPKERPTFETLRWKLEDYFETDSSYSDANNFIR
Sequence of Mitogen-activated protein kinase 8 (P45983 whole entry): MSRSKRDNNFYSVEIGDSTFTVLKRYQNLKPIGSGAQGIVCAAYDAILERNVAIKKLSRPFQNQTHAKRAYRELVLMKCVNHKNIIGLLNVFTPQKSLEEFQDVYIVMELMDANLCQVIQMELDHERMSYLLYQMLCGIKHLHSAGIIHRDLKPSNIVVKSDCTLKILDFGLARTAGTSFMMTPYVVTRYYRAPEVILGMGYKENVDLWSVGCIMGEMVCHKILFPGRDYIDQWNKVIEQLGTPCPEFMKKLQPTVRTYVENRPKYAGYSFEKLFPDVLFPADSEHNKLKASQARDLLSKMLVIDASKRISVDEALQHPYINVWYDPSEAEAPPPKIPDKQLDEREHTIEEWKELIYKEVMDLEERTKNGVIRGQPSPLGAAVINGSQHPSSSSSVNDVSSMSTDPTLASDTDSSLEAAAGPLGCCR

## CCOc1cn(-c2ccc(F)cc2C)nc1C(=O)Nc1ccc(Oc2ccnc3cc(OC)c(OC)cc23)c(F)c1
[1]
  % of control: < 10%
[2]
  % of control: < 10%
[3]
  % of control: < 10%

## CC[C@@H]1C(=O)N(C)c2cnc(Nc3ccc(C(=O)NC4CCN(C)CC4)cc3OC)nc2N1C1CCCC1
[4]
  % of control: 102%
[5]
  % of control: 3.7%
[6]
  % of control: 115%
[7]
  % of control: 92%
[8]
  % of control: 93%

## CN(c1ccnc(CNc2nc(Nc3ccc4c(c3)CC(=O)N4)ncc2C(F)(F)F)n1)S(C)(=O)=O [PF-00911705]
[9]
  % of control: 0%
[10]
  % of control: 10%
[11]
  % of control: 3.8%

## CN1C(=O)c2sccc2N(C)c2nc(Nc3ccc(S(N)(=O)=O)cc3)ncc21
[12]
  % of control: 3.4%
[13]
  Kd: 610 nM

## COc1cc2ncn(-c3cc(OCc4ccccc4C(F)(F)F)c(C(N)=O)s3)c2cc1OC [GW843682X]
[14]
  % of control: 8.6%
[15]
  % of control: 1.6%
[16]
  % of control: 4.7%
[17]
  % of control: 0%
[18]
  % of control: 6.6%
